# Patent US7947742B2 (Civitas Therapeutics, Inc., priority 2002, dated 2011)
# Read-outs that look alike come from different tables or passages of the source.
# Experiments:
# [1] = Stability of epinephrine in dry powders with antioxidants, loosely capped vials (Example 10), HPLC; assay type: physicochemical; conditions: 40° C. and 15% RH, compared to control containing no antioxidants
# From the text: Solution preparation. […] The leucine and the antioxidant were present at a combined 82% of the total solids concentration. The two phases were static-mixed immediately prior to being spray dried.
# Solutions containing BHT, Vitamin E and Vitamin C were made using a slightly different procedure as follows. […] Additional ethanol pure solvent was static-mixed with the 50/50 ethanol/water solution to form a 70/30 (v/v) ethanol/water solution. The Vitamin E formulation at the 0.3% and 0.9% loadings were prepared as follows. The Vitamin E at these levels was dissolved in the complete organic phase and static-mixed with the aqueous phase which prevented the Vitamin E from precipitating out of solution. Vitamin C was only dissolved in the aqueous phase at 0.9% and the three other powders containing vitamin C at 0.6, 0.9 and 2.0% was prepared with Vitamin C dissolved in the organic phase. Spray drying of all of the powders was performed as described for Formulation IX using the procedure of Example 7.
# Stability conditions and analysis. 50 mg of powder was placed into a 7 mL scintillation vial. The vial was loosely capped and placed inside an oven at 40° C. and approximately 15% relative humidity (RH). Samples were analyzed immediately (T0) and after 1, 2, 4 and 8 weeks of such storage. Controls containing no antioxidants (i.e., Formulation IX) were also placed at 45° C. and 50° C. loosely capped.
# [2] = Rat pharmacokinetics, plasma epinephrine after intratracheal insufflation or IM injection (Example 12); assay type: in vivo, Sprague Dawley rats; conditions: rats, injected intramuscularly with epinephrine in solution, up to 20 minutes
# Procedure: (§1) Blood samples were taken from the rats via jugular catheters at time points 0, 2.5, 5, 10, and 20 minutes following dosing. Measurements of heart rate were also made at the same time points.
# Dose Administration. The powder was delivered to the lungs of rats by an insufflation technique. The insufflator device was from PennCentury (Philadelphia, Pa.). The delivery tube of the insufflator was inserted intratracheally through the mouth until the tip of the tube was about a centimeter from the carina (first bifurcation). […] The volume of […] used to deliver the powder from the sample chamber was 3 mL, which was achieved from a charged syringe. The syringe was recharged and discharged two more times for a total of three discharges per powder dose in order to decrease or eliminate powder residues in the sample chamber.
# Study Design. The jugular vein of animals used in pharmacokinetics studies was catheterized with PE90 on the day before the dosing and sampling was performed. A total of six animals were used in this study. For anesthesia (catheter placement and powder dosing), a mixture of ketamine (25 mg), xylazine (3 mg), and acepromazine (0.2 mg) was injected intraperitoneally (IP) into each animal. […] Blood was taken and heart rate was measured using a pulse oximeter attached to the right hind limb of the rats at time 0, 2.5, 5.0, 10.0, and 20.0 minutes. […]
# healthy male subjects = experiment: Phase I human pharmacodynamics, potassium change from baseline (Example 15); assay type: in vivo, humans; conditions: dry powder 800 micrograms, EpiPen 300 micrograms, standard IM 300 micrograms
# Procedure: Safety and PK information was obtained for at least 2 hours following dosing.
# Male Sprague Dawley rats = experiment: Rat heart rate by pulse oximeter after dosing (Example 12); assay type: in vivo
# Procedure: as §1
# Study Design. The jugular vein of animals used in pharmacokinetics studies was catheterized with PE90 on the day before the dosing and sampling was performed. A total of six animals were used in this study. For anesthesia (catheter placement and powder dosing), a mixture of ketamine (25 mg), xylazine (3 mg), and acepromazine (0.2 mg) was injected intraperitoneally (IP) into each animal. The rats were placed on a heating pad after catheter placement to recover. After powder dosing, the rats were placed back in their respective cages. Identification numbers assigned to the rats were written on their tails as well as on the cage cards. Blood was taken and heart rate was measured using a pulse oximeter attached to the right hind limb of the rats at time 0, 2.5, 5.0, 10.0, and 20.0 minutes. The blood samples were collected by syringe from the jugular vein catheter. The blood was carefully ejected into EDTA coated tubes, mixed and then centrifuged for 5 minutes at 14,000 g to separate the plasma from the cells. Plasma was placed into clean microfuge tubes and stored refrigerated until received at the laboratory. […]
# [3] = Phase I human pharmacokinetics of single doses (Example 15); assay type: in vivo, humans
# Procedure: The following example describes a clinical study evaluating inhaled dry powder porous particles containing epinephrine (Formulation VII, as described in Table A). The study was a Phase I, randomized, double blind, placebo-controlled, dose escalation study of the safety, tolerability and pharmacokinetics (PK) of single doses of dry powder epinephrine in healthy male subjects. […] Safety and PK information was obtained for at least 2 hours following dosing.
structure (smiles),measurement,setting,value
"O=C1O[C@H]([C@@H](O)CO)C(O)=C1O [Ascorbic acid, ascorbic acid]",protection against degradation of epinephrine (in words),[1],not effective antioxidants
"Cc1cc(C(C)(C)C)c(O)c(C(C)(C)C)c1 [BHT, butylated hydroxytoluene]",protection against degradation of epinephrine (in words),[1],not effective antioxidants
"O=C(O)CN(CCN(CC(=O)O)CC(=O)O)CC(=O)O [EDTA, ethylenediamine tetra-acetic acid]",protection against degradation of epinephrine (in words),[1],good protection against degradation of epinephrine
"CNCC(O)c1ccc(O)c(O)c1 (centres unmarked) [Epinephrine, 4-[1-hydroxy-2-(methylamino)ethyl]-1,2-benzenediol]",Plasma epinephrine levels (in words),[2],very low and not significantly different from room air controls
same,time of maximal potassium mean change from baseline,healthy male subjects,continued to decrease through 60 minutes post-dose
same,heart rate increase in one animal,"Male Sprague Dawley rats; one rat intramuscularly injected, observed out to 40 minutes, 25 minutes following dosing",340 beats/minute
same,heart rate compared to baseline (in words),"Male Sprague Dawley rats; rats, IM-injected, up to 20 minutes",did not exhibit a significant increase in heart rate
same,CMAX % CV,"[3]; healthy male subjects, standard IM injection, 300 micrograms, n = 7",66%
same,Cmax,"[3]; male, human, plasma, im, 300 micrograms, healthy male subjects, standard IM injection, 300 micrograms, n = 7, read-out: CMAX Mean (SD)",0.263 ng/mL
same,Tmax,"[3]; male, human, plasma, im, 300 micrograms, healthy male subjects, standard IM injection, 300 micrograms, n = 7, read-out: TMAX (range)",1 to 60 min
same,Cmax,"[3]; male, human, plasma, im, 300 micrograms, standard IM injection 300 micrograms, read-out: CMAX values of 2 subjects with higher values",0.405 ng/mL
same,Cmax,"[3]; male, human, plasma, im, 300 micrograms, standard IM injection 300 micrograms, read-out: CMAX values of the others in the group",≤ 0.22 ng/mL
same,CMAX values of 2 subjects with higher values,[3]; standard IM injection 300 micrograms,595 pg/mL
"O=S([O-])S(=O)(=O)[O-].[Na+].[Na+] [Sodium metabisulfite, sodium metabisulfite]",protection against degradation of epinephrine (in words),[1],good protection against degradation of epinephrine
